How the values were obtained:
[1] = tested on: MDA-MB-231 solid tumor xenografts; experiment: Effect of FITC-Folate dose on anti-FITC CAR T cell response (Example 10); assay type: in vivo, NSG mice
From the text: Five experimental groups: (1) anti-FITC CAR T cell with PBS; (2) anti-FITC CAR T cell with FITC-Folate (5 nmoles/kg); (3) anti-FITC CAR T cell with FITC-Folate (50 nmoles/kg); (4) anti-FITC CAR T cell with FITC-Folate (500 nmoles/kg); (5) anti-FITC CAR T cell with FITC-Folate (2500 nmoles/kg) were designed to identify the relationship between anti-FITC CAR T cell response and the dose of FITC-ligands. MDA-MB-231 cells were subcutaneously injected into the shoulders of NSG mice (Jackson Laboratory) to establish solid tumor xenografts. When tumor volume reached around 50-100 mm^3, anti-FITC CAR T cells (15×10^6 cells) and different doses of FITC-Folate were intravenously introduced into the mice.
To monitor anti-FITC CAR T cell activation with the different doses of FITC-Folate, IFN-gamma concentration was measured in mouse blood by a bead-based immunoassay (Legendplex kit from Biolegend). Tumor volume was also measured. General toxicity for each treatment group was monitored by measuring weight loss.

MDA-MB-231 tumor = experiment: CAR-T anti-tumor activity and toxicity at different EC17 dose levels (Example 27); assay type: in vivo
Description: Immunodeficient NSG mice (Jackson Laboratory) were used to study CAR T cell anti-tumor activity and its toxicity in the presence of different EC17 dose levels. MDA-MB-231 tumor cells were used to establish subcutaneous solid tumor xenografts. When tumor volume of around 100-150 mm^3 was reached, various concentrations of EC17 were pre-injected 4 hours before i.v. injection of 10 million CAR-T cells. Various concentrations of EC17 were then administrated three times per week after the initial EC17 and CAR-T cell injections. The negative control group was injected with 500 nmol/kg EC17 (4 hour in advance) and […] unmodified T cells. 500 nmol/kg EC17 was then administrated three times per week after initial injection. Tumor size and body weight were measured to monitor the anti-tumor activity and the toxicity. […] By adjusting the EC17 dose level, CAR-T anti-tumor activity can be maintained while the resulting body weight loss (toxicity) can be reduced. In FIGS. 20A and 20B, EC17 is also referred to as “adaptor” or “bi-specific adaptor”.

[2] = tested on: anti-FITC CAR T cells with MDA-MB-231; experiment: In vitro interferon-γ assay (Example 22); assay type: cell-based, Human
Description: In order to study the relationship between bridge dose and anti-FITC CAR T cell activation, a folate receptor positive cancer cell line (MDA-MB-231) was seeded at a density of 10^4 cells/100 ul of media in each well of a 96-well plate and the cells were grown overnight. Anti-FITC CAR T cells (5×10^4 cells) were then added into each well containing cancer cells with various concentrations of Folate-FITC (from 0.001 nM to 100 μM) for 6-24 hours. After co-incubation, the plates containing anti-FITC CAR T cells and cancer cells were centrifuged for 10 min at 350×g to remove cells and cellular debris, and 50 ul of supernatant was assayed by ELISA (Human IFN-γ ELISA kit from Biolegend) to detect IFN-γ production by anti-FITC CAR T cells.

KB = experiment: FITC-CAR-T/EC17 therapy, KB model (Example 28); assay type: in vivo, NSG mice
Description: To test whether FITC-CAR-T/EC17 therapy has anti-tumor activity in various FR+ tumor models, NSG mice were subcutaneously implanted with MDA-MB-231 (triple negative breast cancer cell line), OV90 (human ovarian cancer cell line), KB (human cervical adenocarcinoma cell line), SKOV-3 (human ovarian carcinoma cell line), or HEK293-FRa (HEK293 stably-transfected with human FRa). When tumor size reached […], one dose of EC17 at 500 nmol/kg of body weight was injected by tail vein followed with administering of 5 million FITC-CAR-T cells 4 hours later. 500 nmol/kg EC17 was dosed once every week after the initial EC17/CAR-T administration (about day 7), tumor size and body weights of mice were monitored three times per week. The EC17 dosing days were labeled as green dashed vertical lines in the graph. […] EC17 dose-dependent temporary body weight loss was also observed in all tumor bearing mice, indicating the activation of CAR-Ts is EC17-dependent in these mice.

FR+ HEK-FRa xenografts = experiment: FITC-CAR-T proliferation in HEK-FRa s.c. xenograft model (Example 37); assay type: in vivo, mice; settings: 500 nmol/kg three times per week
Description: The evaluation of FITC-CAR-T proliferation and related toxicity in both naïve mice and mice bearing FR+ tumor xenografts was tested. To evaluate whether FITC-CAR-T proliferation in vivo is dependent on the co-existence of the bridge (e.g. EC17) and the tumor antigen (e.g. folate receptor), FITC-CAR-T proliferation in vivo was compared in naïve mice and mice bearing FR+ tumor xenografts, either with or without EC17. 5-8 million CAR-T cells (as indicated in FIGS. 42 and 43) were administered (i.v.) into naïve mice without tumors and mice bearing FR+ tumor xenografts (80-200 mm3). 500 nmol/kg EC17 was dosed 4 hours before and three times per week post CAR-T administration, if desired. Mice were monitored for body weight changes and CAR-T cell count in blood circulation; some mice were also euthanized weekly to evaluate organs. […] CAR-T cell count in blood samples was also compared to evaluate CAR-T proliferation. […] Since the enlargement of spleen size is another indicator for CAR-T proliferation in vivo, spleen size was also measured as shown in FIG. 43B.
For FIG. 42, the MDA-MB-231 s.c. model was used. For FIG. 43A, the HEK-FRa s.c. xenograft model was used. For FIG. 43B, the MDA-MB-231 s.c. model was used.

Nc1nc2ncc(CNc3ccc(C(=O)NC(CCC(=O)NCCNC(=S)Nc4ccc(-c5c6ccc(=O)cc-6oc6cc(O)ccc56)c(C(=O)O)c4)C(=O)O)cc3)nc2c(=O)[nH]1 (stereo not drawn) [EC17, FITC-Folate]
concentration of IFN-gamma versus FITC-Folate dose ([1]; 5, 50, 500, 2500 nmoles/kg, 15×10^6 CAR T cells): bell-shaped dose-response curve | dose with maximum toxicity (lowest survival rate) and highest anti-tumor efficacy ([1]; 15×10^6 CAR T cells): 500 nmol/kg | anti-tumor efficacy of CAR T cells ([1]; FITC-Folate 2500 nmole/kg): started to decrease | toxicity (body weight loss) (MDA-MB-231 tumor; 20 nmol/kg TIW): least toxicity | toxicity (body weight loss) (MDA-MB-231 tumor; 500 nmol/kg TIW): strongest toxicity | tumor outcome (MDA-MB-231 tumor; 500, 100 or 20 nmol/kg TIW, 10 million CAR-T): all eliminated | optimal bridge dose (highest IFN-γ level) ([2]; 0.001 nM to 100 μM, 6-24 hours): 10 nM | IFN-γ production ([2]; 10 μM and 100 μM): not detected | tumor response (KB; 500 nmol/kg weekly, 5 million FITC-CAR-T): stable disease | fraction of mice with sCRS (KB; day 23): ⅔ | fraction of mice with sCRS (KB; day 37): ⅓ | FITC-CAR-T proliferation (FR+ HEK-FRa xenografts): rapid proliferation

From patent US11759480B2, “Compositions and methods for CAR T cell therapy” (ENDOCYTE, INC., priority 2017, dated 2023)
